What all share (format): in vivo
The test system of series [1] is human DGAT2. Put plainly: Mice receiving hydrodynamic injection of human DGAT2 plasmid via the tail vein (Example 7). Particulars: 3 mg/kg subcutaneous single dose day 0; BALB/c mice, liver DGAT2 mRNA. On the procedure: (§1) Animals: BALB/c mice, female, 6-7 weeks old.
(§2) DGAT2 plasmid DNA: pcDNA-DGAT2 plasmid, having a concentration of 2 µg/µL, diluted with physiological saline for later use.
The in-vivo experimental designs for the hydrodynamic injection of DGAT2 plasmid DNA via the tail vein, the administration, and the sample collection method were shown in the table below.
Treatment with compound: The day of administration to mice was defined as day 0, the day before it was day -1, the day after it was day 1, and so on. On day 0, the mice were injected subcutaneously with 5 mL/kg of the solvent or the test compound.
Hydrodynamic injection of DGAT2 plasmid DNA solution into mice via tail vein: On day 14, the plasmid DNA was prepared with normal saline before injection, and stored at 4°C until use. All mice were injected with the plasmid DNA solution in a volume of 8% of the body weight (injection volume (mL)= body weight of mice (g) x 8%) in 5 seconds via the tail vein, and the weight of plasmid injected into each mouse was 10 µg. […]
RNA in the liver was extracted with Trizol. The concentration of the RNA sample was determined by Nanodrop ONE (ultra-micro ultraviolet-visible spectrophotometer) and diluted to 400 ng/uL with water without RNase for reverse transcription. Quantitative PCR detection of DGAT2 and NEO gene expressions in mouse liver: […]

The subject of another series is hDGAT2. Put plainly: Mouse model receiving hydrodynamic injection of DGAT2 plasmid via tail vein (Example 5, liver mRNA qPCR). The following applies: for Average inhibition rate, % Day 1 after HDI (day 5 after administration): 3mpk subcutaneously day 0, HDI day 4, BALB/c mice; for Average inhibition rate, % Day 1 after HDI (day 15 after administration): 3mpk subcutaneously day 0, HDI day 14, BALB/c mice. On the procedure: BALB/c mice, female, 6-7 weeks old.
pcDNA-DGAT2 plasmid, having a concentration of 2 µg/µL, diluted with physiological saline for later use.
The hydrodynamic injection scheme of DGAT2 plasmid DNA via tail vein, the administration and the sample collection method were as follows.
Treatment with compound: The day of administration to mice was defined as day 0, the day before it was day -1, the day after it was day 1, and so on. On day 0, the mice were injected subcutaneously with 5 mL/kg of the solvent or the test compound, at a dosage of 3mpk.
Hydrodynamic injection of DGAT2 plasmid DNA solution into mice via tail vein: On day 4 or 14, the plasmid DNA was prepared with normal saline before injection, and stored at 4°C until use. All mice were injected with the plasmid DNA solution in a volume of 8% of the body weight (injection volume (mL)= body weight of mice (g) x 8%) in 5 seconds via the tail vein, and the weight of plasmid injected into each mouse was 10 µg.
Endpoint of the experiment and collection of liver samples: On day 5 or 15, that is, 24 hrs after the hydrodynamic injection of DGAT2 plasmid via the tail vein, all mice were euthanized by CO2 inhalation. After euthanasia, blood samples were collected from the heart and liver samples were collected. 2 liver tissues of about 70 mg were immersed in RNAlater®, and incubated overnight at 4 °C. The supernatant was discarded and the remainder was transferred to a freezer at -80°C, for mRNA detection later.
RNA in the liver was extracted with Trizol. The method was briefly described as follows: 50-70 mg of liver tissue and 1.2 mL of Trizol were homogenized with Qiagen Tissue Lyser II at 26 Hz for 2 min and lyzed at room temperature for 5 min. 1 mL of the supernatant was taken, added to 200 uL of chloroform, vigorously shaken for 15 s, allowed to stand for 3 min, and centrifuged. The supernatant was collected, added with an equal volume of isopropanol, and stood overnight at -20°C for precipitation. The precipitate was washed twice with 70% , and dissolved in water without RNase. The concentration of the RNA sample was determined by Nanodrop ONE and diluted to 400 ng/uL with water without RNase for reverse transcription.
The experimental steps of reverse transcription could be made reference to the instruction of FastKing cDNA first strand synthesis kit (genome clean). Briefly, a gDNA removal mixture was prepared according to Table 6. The mixture (5 µL/sample) and 400 ng/µL RNA sample were added to a 96-well PCR reaction plate, incubated at 42°C for 3 min, and cooled on ice. A mixture for reverse transcription was prepared according to Table 7. The reverse transcription mixture (10 µL/sample) and the DNA removal product of the previous step were added to a 96-well PCR reaction plate, for reverse transcription. Reaction conditions: 42°C for 15 min; and 95°C for 3 min. The cDNA was stored at 4°C for further analysis. Table 6. Ingredients for gDNA-removal reaction
Reaction conditions: 95°C for 10 min; and 40 cycles of 95°C for 15 s, and 60°C for 1 min. Table 8. Ingredients for qPCR Reaction (DGAT2)
The expression of the target gene in each sample was analyzed by relative quantification using ΔΔCt method. In this method, the Ct difference (ΔCt) between the target gene (DGAT2) and the internal reference gene (Neo) was determined, and the ΔCt value of the sample treated with the compound was compared with that of the control group.
The formula is: ΔCt = average Ct value of target gene−average Ct value of reference gene. [formula] [formula]
Data analysis: The data are expressed as the average of each group of mouse samples ± standard error. Unless otherwise specified, n=4 or 5. Student's t test was used for statistical analysis. Table 10.1 Test for evaluating the in-vivo inhibitory activity of siRNA compounds on target gene DGAT2 in mice model receiving hDGAT2 HDI 5 days after administration
Background: Real-time PCR tracks product formation cycle by cycle.

Series [2] relates to human DGAT2. Nature of the series: Mice receiving hydrodynamic injection of human DGAT2 plasmid via the tail vein (Example 8). Particulars: 3 mg/kg subcutaneous single dose day 0; BALB/c mice, liver DGAT2 mRNA. On the procedure: as §1, §2
Experimental method: The in-vivo experimental designs for the hydrodynamic injection of DGAT2 plasmid DNA, the administration and the sample collection method were shown in the table below.
Treatment with compound: The day of administration to mice was defined as day 0, the day before it was day -1, the day after it was day 1, and so on. On day 0, the mice were injected subcutaneously with 5 mL/kg of the solvent or the test compound,
Hydrodynamic injection of DGAT2 plasmid DNA solution into mice via tail vein: On day 14, the plasmid DNA was prepared with normal saline before injection, and stored at 4°C until use. […]
Quantitative PCR detection of DGAT2 gene expression in mouse liver: RNA in the liver was extracted with Trizol. The concentration of the RNA sample was determined by Nanodrop ONE (ultra-micro ultraviolet-visible spectrophotometer) and diluted to 400 ng/uL with water without RNase for reverse transcription. Quantitative PCR detection of DGAT2 and NEO gene expressions in mouse liver: […]

For the next series, the system named is DGAT2. Nature of the series: Inhibitory activity on the target gene DGAT2 in mice (Example 6, liver mRNA RT-PCR). Particulars: 3 mg/kg SC, day 0, once; C57BL/6 mice, liver mRNA day 7. From the text:
Animals: Male C57BL/6 mice, 6 weeks old, without particular pathogens. Before the experiment, the animals were allowed to acclimate to the environment for 7 days.
Solvent: phosphate buffer (PBS).
In-vivo experiment: The in-vivo experimental designs for the animal administration and the sample collection method were shown in the table below.
Definition of days of experiment: The day of first administration to mice was defined as day 0, the day before it was day -1, the day after it was day 1, and so on.
All mice were given a single dose of PBS, the control compound or the test compound by SC on day 0. On day 7, blood was taken from the submandibular vein plexus mice, and the plasma was collected. Then the mice were euthanized. Blood was taken from the heart for later use. The liver was collected for analysis of target mRNA level in the liver.
Sample detection and analysis: RT-PCR was used to quantitatively detect the level of target mRNA in liver tissue.
The expression of the target gene in each sample was analyzed by relative quantification using ΔΔCt method. In this method, the Ct difference (ΔCt) between the target gene (DGAT2) and the internal reference gene (GAPDH) was determined, and the ΔCt value of the sample treated with the compound was compared with that of the control group. […]
Data analysis: The data are expressed as the average of each group of mouse samples ± standard error. […]

“dS301: sense (invAb)*gaagaaguUfCfCfagaaauacau*(invAb)[L96]; anti-sense a*Uf*g*UfaUfuucugGfaAfcUfuCfuUf*c”: in the series on human DGAT2 [1], the “Average inhibition rate, % (Day 15 after administration)” value is 79%. Besides, in the series on hDGAT2, the “Average inhibition rate, % Day 1 after HDI (day 5 after administration)” value is reported as 91.68% and the “Average inhibition rate, % Day 1 after HDI (day 15 after administration)” value is reported as 78.89%. On to “dS302: sense (invAb)*acaccauaGfAfCfuauuugcuuu*(invAb)[L96]; anti-sense a* Af*a*GfcAfaauagUfcUfaUfgGfuGf*u”, for which the “Average inhibition rate, % (Day 15 after administration)” value in the series with human DGAT2 [2] was determined as 70.4%. For the same substance, in the series with hDGAT2, the “Average inhibition rate, % Day 1 after HDI (day 5 after administration)” value was 97.46% and the “Average inhibition rate, % Day 1 after HDI (day 15 after administration)” value was found to be 70.35%.

For “dS303: sense (invAb)*uguacauaUfUfCfugcacugauu*(invAb)[L96]; anti-sense a* Af*u*CfaGfugcagAfaUfaUfgUfaCf*a”, the “Average inhibition rate, % Day 1 after HDI (day 5 after administration)” value with hDGAT2 is 85.53%. Still for that read-out and setting: then “dS304: sense (invAb)*cgcuacuuUfCfGfagacuacuuu*(invAb)[L96]; anti-sense a*Af*a*GfuAfgucucGfaAfaGfuAfgCf*g”, with 66.33%. Still for that read-out and setting: in the case of “dS305: sense [NAG37](invAb)*uggguuauUfUfAfaaagaaauua*(invAb ); anti-sense u*Af*a*UfuUfcuuuuAfaAfuAfaCfcCf*a” it was 95.59%; in that of “dS306: sense [NAG37](invAb)*uguggguuAfUfUfuaaaagaaau*(invAb ); anti-sense a*Uf*u*UfcUfuuuaaAfuAfaCfcCfaCf*a”, 96.72%. Regarding “dS307: sense (invAb)*ggugucugUfGfGfguuauuuaaa*(invAb)*[L96]; anti-sense Vpu*Uf*Uf*AfaauaaccCfaCfaGfacac*c”, the “Average inhibition rate (%) (7 days)” value in the series with DGAT2 came to 76%. The “Average inhibition rate, % Day 1 after HDI (day 15 after administration)” value in the series on hDGAT2 came to 61.03%. Turning to “dS316: sense (invAb)*gaagaaguUfCfCfagaaauacaa[L96]; anti-sense Vpu*Uf*g*UfaUfuucugGfaAfcUfuCfuUf* c”, the “Average inhibition rate, % (Day 15 after administration)” value in the series on human DGAT2 [1] worked out at 66%.

The values above are taken from patent publication EP4722365A1, “DOUBLE-STRANDED NUCLEOTIDE COMPOUND FOR METABOLIC DISEASES AND USE THEREOF” (Visirna Therapeutics (Suzhou) Co., Ltd., priority 2023, dated 2024).
